In patent US20240342195A1, “AGENT FOR COMBINATION USE COMPRISING T CELL AND/OR B CELL ACTIVITY REGULATOR” (TOKAI UNIVERSITY EDUCATIONAL SYSTEM, priority 2021, published 2024):
“Also recorded” adds a separate entry of the source.

What was measured:
[1] = test system: CD4 and CD8 T cells in PBMCs; assay: restimulation experiment (transient vs continuous P4/COR), PD-1/PD-L1 on T cells; type: cell-based, human; conditions: CD4 and CD8 T cells, TSST-1 3 days
Description: (§1) In a restimulation experiment, PBMCs were cultured for 6 hours at 37° C. in 5% CO2 in 10% FCS-containing RPMI 1640 to which 200 μM P4 or COR was added. These cells were washed, adjusted to a final concentration of 1×10^6/mL, and cultured again in the presence or absence of 200 μM P4 or COR with stimulation by 1 μM TSST-1. After 72 hours, the resultant cells were collected to be analyzed by FCM.

[2] = test system: B cell in PBMCs; assay: FCM analysis of PD-1 on B cells of TSST-1-stimulated PBMCs; type: cell-based, human; conditions: TSST-1 and P4/COR stimulation; data not shown
Description: (§2) The PBMCs (final concentration: 1×10^6/mL) were cultured for 3 days at 37° C. in 5% CO2 in 10% FCS-containing RPMI 1640 to which P4 or COR was added in various concentrations with stimulation by 1 μg/mL of toxic shock syndrome toxin-1 (TSST-1). These cells were collected, washed with PBS, and dispensed into a Fisher tube in an amount of 1×10^6 cells/tube. For analysis of a human cell surface marker, a fluorescent-labeled anti-human monoclonal antibody (mAbs) was used. The cells were stained with the mAbs, a reaction was performed for 15 minutes at 4° C., and the resultant was washed with PBS containing 1% (w/v) BSA. Then, the resultant was analyzed by FACS Fortessa, or FACS Verse (BD Bioscience, Franklin Lakes, NJ). In the analysis, a leukocyte gated or lymphocyte gated cells were further gated by expression of human CD45, and then the analysis was performed. A culture supernatant was collected, and 25 μL thereof was dispensed to quantitatively determine cytokine with Legend Plex™ kit from BioLegend.

[3] = test system: T cell (CD3 gated) in human PBMCs; assay: atezolizumab addition experiment, PD-L1/PD-1 expression on T cell by FCM; type: cell-based; conditions: 0 to 200 μM; TSST-1; 3 days
Description: (§3) As for an experiment of atezolizumab addition, 0 to 200 μM P4 or COR, 1 μM TSST-1, and 100 μg/mL atezolizumab were added to PBMCs, and the resultant was cultured for 72 hours at 37° C. in 5% CO2, followed by analysis by FCM.

[4] = test system: B cell in PBMCs; assay: restimulation experiment (transient vs continuous P4/COR), PD-L1 on B cells; type: cell-based, human; conditions: TSST-1 3 days
Description: as §1

[5] = test system: Hu-PBMC-NOG (GVHD onset model); assay: GVHD onset model: human PBMCs transplanted to NOG mouse, P4 or COR administered subcutaneously; type: in vivo; conditions: 4 weeks
Description: In the analysis using the GVHD model, PBMCs prepared in the same manner as described above were washed with PBS, and 2.5×10^6 PBMCs were intravenously transplanted to each 8- to 9-week-old NOG mouse. […] At the same time as the administration, the weight was measured. After 4 weeks, the mouse was anesthetized to collect heart blood, and euthanized. From various lymphoid organs excised, human cells were prepared, hemolyzed, and then subjected to FCM. Besides, the lung and the liver were excised, and immunohistochemically stained as follows. A tissue of the mouse was immobilized with 20% formalin (Wako Pure Chemical Industries, Ltd.), and embedded in paraffin. The obtained paraffin block was sliced, and the resultant was subjected to deparaffinization, mounted on a slide glass, and stained with hematoxylin and eosin (HE). In immunohistochemical staining with an anti-human CD45 antibody, the slide was subjected to a heat treatment at 97° C. for 20 minutes, and subjected to an endogenous peroxidase treatment through a reaction with 0.3% H2O2/MetOH at room temperature for 10 minutes. Thereafter, the resultant was blocked with 1% goat serum, and anti-human CD45 (Dako) was added thereto, followed by a reaction overnight at 4° C. The resultant slide was washed 3 times with 0.01 M PBS for 5 minutes, and colored with a DAB solution. The resultant was washed with running water for 3 minutes, and stained with hematoxylin, followed by dehydration and penetration/encapsulation.

[6] = test system: Human peripheral blood mononuclear cells (PBMCs); assay: cytokine production in PBMCs activated in the presence of P4; type: cell-based; conditions: 0 to 200 μM; PBMCs + TSST-1; 3 days
Description: as §2

[7] = test system: B cell (CD19 gated) in human PBMCs; assay: atezolizumab addition experiment, PD-L1/PD-1 expression on B cell by FCM; type: cell-based; conditions: TSST-1, 3 days
Description: as §3

[8] = test system: A20; assay: proliferating ability of cell line cultured with P4 or COR; type: cell-based, mouse; conditions: cultured 3 days
Description: (§4) Each of human choriocarcinoma cell line JEG-3, BeWo, and embryonic kidney cell line HEK293 was cultured for 10 days at 37° C. in 5% CO2 in a 10% Fetal Calf Serum (FCS)-containing DMEM (Gibuco) to which water-soluble progesterone (P4; water soluble) (Sigma) or cortisol (COR) (Sigma) was added in various concentrations. Each of mouse myeloma cell line P3-X63-Ag8-U1 (P3X) and mouse lymphoma cell line A20 was cultured for 3 days at 37° C. in 5% CO2 in 10% FCS-containing RPMI 1640 to which P4 or COR was added in various concentrations. Proliferation of the cells was evaluated by measuring the number of the cells.

[9] = test system: P3-X63-Ag8-U1 (P3X); assay: as above; type: cell-based, mouse; conditions: cultured 3 days
Description: as §4

[10] = test system: PBMC-NOG-hIL-4-Tg mouse; assay: transplantation of P4/COR-cultured PBMCs to NOG-hIL-4-Tg mouse immunized with CH401MAP; type: in vivo
[11] = test system: CD4 and CD8 T cells in PBMCs; assay: FCM analysis of activation/exhaustion markers (CD25, PD-1) on T cells of TSST-1-stimulated PBMCs; type: cell-based, human; conditions: day 3
Description: as §2

[12] = test system: Human peripheral blood mononuclear cells (PBMCs); assay: number of cells of TSST-1-stimulated PBMCs cultured with P4 or COR; type: cell-based; conditions: PBMCs + TSST-1; 3 days; high concentration
Description: as §2

[13] = test system: BeWo; assay: proliferating ability of cell line cultured with P4 or COR; type: cell-based, human; conditions: 200 μM, cultured 10 days
Description: as §4

[14] = test system: HEK293; assay: as above; type: cell-based, human; conditions: 200 μM, cultured 10 days
Description: as §4

[15] = test system: JEG-3; assay: as above; type: cell-based, human; conditions: 200 μM, cultured 10 days
Description: as §4

[16] = 2 mg/head subcutaneously twice a week

In the case of `CC(=O)[C@H]1CC[C@H]2[C@@H]3CCC4=CC(=O)CC[C@]4(C)[C@H]3CC[C@]12C` [P4, progesterone], the “ratio of later-phase activated (PD-1/PD-L1-positive) cells” value ([1]; continuously added, 200 μM) is reported as “remarkably reduced”, the “activation (PD-1/PD-L1-positive cells) vs control group” value ([1]; transiently added (200 μM 6 hours, washed)) is reported as “substantially equivalent to or greater than that of a control group” and the “PD-1 expression on B cell” value [2] is reported as “not increased”. The “PD-1 expression in a T cell” value [3] was “reduction in PD-1 expression dependent on P4 concentration”, the “PD-L1 expression in a T cell” value [3] was “reduced” and the “PD-L1 expression in B cell” value ([4]; continuous administration, 200 μM) was “suppressed PD-L1 expression”. For the same molecule, the “PD-L1 expression in B cell” value ([4]; transient addition (200 μM 6 hours, washed)) was “tended to maintain the expression; also recorded: tended to rather increase PD-L1 expression”, the “CD8 T cells” value [5, 16] was “tend to increase” and the GVHD symptoms [5, 16] was “remarkably relieved”. For the same molecule, the “number of spleen cells vs control” value [5, 16] was “rather increased”, the “weight loss by GVHD” value [5, 16] was “only slightly caused at an initial stage” and the “lymphocyte infiltration into a peripheral tissue such as the lung” value ([5]; anti-human CD45 immunohistochemical staining, 2 mg/head subcutaneously twice a week) was “tended to be suppressed”. For the same molecule, the “CD62L expression in vivo” value ([5]; continuously administered to humanized NOG mouse of GVHD onset model) was “maintained CD62L expression in vivo for a long period of 4 weeks”, the “cytokine production in culture supernatant (10 cytokines of FIG. 4)” value [6] was “suppression of cytokine production was observed depending on the P4 concentration” and the “PD-L1 expression in a B cell” value ([7]; 0 to 200 μM) was “showed PD-L1 expression”. For the same molecule, the “PD-L1 expression in a B cell” value ([7]; 20 μM) was “high”, the proliferation ([8]; 20 μM or less) was “proliferation suppression was not observed” and the proliferation ([8]; high concentration of 200 μm) was “proliferation suppression was observed”. For the same molecule, the proliferation ([9]; 20 μM or less) was “proliferation suppression was not observed”, the proliferation ([9]; high concentration of 200 μm) was “proliferation suppression was observed” and the “engraftment ability of transplanted PBMCs” value ([10]; PBMCs cultured with 200 μM for 6 hours before transplantation, analysis after 4 weeks) was “equivalent to that of a control group”. The “specific antibody production (CH401MAP)” value ([10]; PBMCs cultured with 200 μM for 6 hours before transplantation, plasma after 4 weeks) was “maintained”, the “expression of CD62L in human cells engrafted into the spleen” value ([10]; treated PBMCs transplanted to NOG-hIL-4-Tg, 4 weeks) was “increased as compared with that in a CTRL mouse” and the “activation marker-negative (non-activated) T cells” value ([11]; 20 to 200 μM) was “increased depending on the P4 concentration”. The “later-phase activated (CD25-positive PD-1-positive) T cells” value ([11]; CD4 and CD8 T cells, 200 μM) was “minimally detected”, the “ratio of later-phase activated (CD25-positive PD-1-positive) T cells” value ([11]; CD4 and CD8 T cells, 20 to 200 μM) was “reduced dependent on the P4 concentration” and the “proliferation (number of cells)” value [12] was “suppressed”. For the same molecule, the cell proliferating ability [13] was “little proliferated”, the cell proliferating ability [14] was “little proliferated” and the cell proliferating ability [15] was “little proliferated”.
